In paper PMC11478334, “Quaternized Curcumin Derivative—Synthesis, Physicochemical Characteristics, and Photocytotoxicity, Including Antibacterial Activity after Irradiation with Blue Light” (Molecules, 2024):
Read-outs that look alike come from different tables or passages of the source.

Assays:
C. albicans = system: C. albicans; design: method as in PMID 22934533; conditions: 80 µM curcumin, 37.5 J/cm^2; mouse model of oral candidiasis; cited from earlier work
MRC-5 fibroblasts = system: MRC-5 fibroblasts; design: method as in Lazewski et al. 32; conditions: ref Lazewski et al. 32, cited from earlier work
[1] = system: WM266-4 melanoma cell line; design: method as in Siwak et al. 49; conditions: after 96 h of incubation; ref Siwak et al. 49; cited from earlier work

melting point [°C]	Compound	reduction in the survival of C. albicans (C. albicans) [log]	IC50 (MRC-5 fibroblasts; after 24 h) [µM]	IC50 (MRC-5 fibroblasts; after 48 h) [µM]	IC50 [1] [µM]
170 to 173	F[B-]1(F)OC(/C=C/c2ccc(OCCN3CCOCC3)cc2)=CC(/C=C/c2ccc(OCCN3CCOCC3)cc2)=[O+]1 [Compound 2]				
	Curcumin [reference compound]	4	70.4 ± 12.5	45.3 ± 3.18	~7
